Experimental data reported in patent US7371364B2, “Cyclic peptide and imaging compound compositions and uses for targeted imaging and therapy” (Board of Regents, The University of Texas System, priority 2003, dated 2008).
Residues, ends and D or L forms follow the SMILES beside them.

Legend:
[1] = tested on: integrin-positive M21 melanoma; test: In vivo NIR imaging of human melanoma xenograft, integrin-positive; set-up: species or system mice; conditions: M21 melanoma, 24 hr after i.v. injection, 3 nmol/mouse
Text: In vivo fluorescence imaging was accomplished by illuminating the animal with light from a laser diode (35 mW) expanded to an approximate 8 cm diameter circular area. The fluorescent light re-emitted from the animal was collected by an image intensifier (model FS9910C, ITT Night Vision, Roanoke, Va.) lens-coupled to a CCD camera (model CH350, Photometrics, Tucson, Ariz.). The imaging was designed so that the field of view could be varied from 3×3 cm to over 12×12 cm by varying the image distance of the 50 mm lens used to focus the image onto the photocathode of the intensifier. The lens was fitted with a holographic notch-plus filter (660 nm center wavelength; Kaiser Optical Systems, Inc., Ann Arbor, Mich.) and a bandpass filter (710 nm center wavelength) to reject back-scattered and reflected excitation photons. Image acquisition was accomplished using V++ software (Digital Optics, Auckland, New Zealand) and the obtained images were stored in uncompressed tagged image file format (tiff). Data processing and analysis were accomplished using Matlab software (The MathWorks, Inc., Natick, Mass.). For all imaging sessions, the image acquisition parameters were kept constant, and each image required 800 ms of camera integration.

[2] = molecular target: αvβ3 integrin (on KS1767 cells) (UniProt P06756); test: cell-based or functional assay
[3] = Stability assay in serum-containing culture medium (HPLC); assay type: in vitro ADME; conditions: 25° C.; for Degradation in culture medium: 3 hours
Protocol: Each test peptide was incubated in a serum-containing culture medium (Dulbecco's Modified Eagle's Medium/Nutrient Mixture F-12 Ham and 10% FBS) (1 mg/ml) at 25° C. At various time intervals, aliquots of peptide solution (50 μL) were withdrawn and subjected to HPLC analysis. The percentage of remaining intact peptide was recorded as a function of time.

Sequence of αvβ3 integrin (on KS1767 cells) (P06756 31-1048, chain 1 of 2): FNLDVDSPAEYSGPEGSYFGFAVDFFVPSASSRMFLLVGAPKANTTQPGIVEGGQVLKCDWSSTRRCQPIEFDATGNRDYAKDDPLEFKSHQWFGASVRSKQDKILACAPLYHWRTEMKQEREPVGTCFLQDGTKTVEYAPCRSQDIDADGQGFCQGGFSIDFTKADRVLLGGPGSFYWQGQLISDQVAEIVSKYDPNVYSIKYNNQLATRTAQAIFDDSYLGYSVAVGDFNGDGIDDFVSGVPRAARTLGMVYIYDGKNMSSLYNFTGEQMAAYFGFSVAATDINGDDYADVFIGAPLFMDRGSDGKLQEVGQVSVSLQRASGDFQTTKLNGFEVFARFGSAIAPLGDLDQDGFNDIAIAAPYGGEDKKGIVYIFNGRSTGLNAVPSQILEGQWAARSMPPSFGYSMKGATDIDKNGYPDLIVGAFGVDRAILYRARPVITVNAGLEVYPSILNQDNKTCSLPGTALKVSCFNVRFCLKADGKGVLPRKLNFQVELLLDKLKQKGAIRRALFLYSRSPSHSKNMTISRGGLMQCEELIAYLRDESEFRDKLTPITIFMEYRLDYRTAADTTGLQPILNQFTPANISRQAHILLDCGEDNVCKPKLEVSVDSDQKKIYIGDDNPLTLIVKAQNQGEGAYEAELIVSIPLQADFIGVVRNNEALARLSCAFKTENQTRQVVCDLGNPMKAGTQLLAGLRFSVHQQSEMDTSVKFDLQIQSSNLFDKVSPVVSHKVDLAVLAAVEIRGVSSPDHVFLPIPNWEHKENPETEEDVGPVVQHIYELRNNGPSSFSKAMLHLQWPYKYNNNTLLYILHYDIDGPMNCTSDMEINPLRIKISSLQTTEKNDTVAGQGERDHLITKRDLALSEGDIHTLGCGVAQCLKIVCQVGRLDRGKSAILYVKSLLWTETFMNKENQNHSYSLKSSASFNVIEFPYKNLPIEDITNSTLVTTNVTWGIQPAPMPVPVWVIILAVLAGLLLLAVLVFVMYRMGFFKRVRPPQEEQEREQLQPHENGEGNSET
Sequence of αvβ3 integrin (on KS1767 cells) (P05106 27-788, chain 2 of 2, further chain): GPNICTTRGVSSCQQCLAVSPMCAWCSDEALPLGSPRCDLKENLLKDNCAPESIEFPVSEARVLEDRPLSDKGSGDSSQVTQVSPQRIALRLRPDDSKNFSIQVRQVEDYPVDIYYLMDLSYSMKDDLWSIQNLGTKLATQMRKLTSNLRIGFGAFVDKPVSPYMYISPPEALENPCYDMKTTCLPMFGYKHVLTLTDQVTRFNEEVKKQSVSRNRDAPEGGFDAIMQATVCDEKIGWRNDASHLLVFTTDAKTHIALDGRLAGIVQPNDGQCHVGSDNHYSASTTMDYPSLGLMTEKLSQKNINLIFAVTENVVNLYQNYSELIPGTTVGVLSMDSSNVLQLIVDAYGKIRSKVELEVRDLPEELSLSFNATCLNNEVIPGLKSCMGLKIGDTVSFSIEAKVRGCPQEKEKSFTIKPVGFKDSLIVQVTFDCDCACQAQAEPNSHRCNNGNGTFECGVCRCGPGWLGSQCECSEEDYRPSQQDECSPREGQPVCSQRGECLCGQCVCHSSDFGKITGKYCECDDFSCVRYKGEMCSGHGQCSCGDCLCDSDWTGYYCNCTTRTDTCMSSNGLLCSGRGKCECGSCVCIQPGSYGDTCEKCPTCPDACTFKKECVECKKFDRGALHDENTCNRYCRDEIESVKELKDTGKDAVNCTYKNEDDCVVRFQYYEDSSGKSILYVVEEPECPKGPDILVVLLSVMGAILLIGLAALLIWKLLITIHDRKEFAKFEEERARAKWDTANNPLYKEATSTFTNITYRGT

Compound	IC50 of inhibition of adhesion of KS1767 cells to vitronectin-coated microplate wells [2]	Degradation in culture medium [3]	further results
CC1(C)C(/C=C/C2=C(Oc3ccc(S(=O)(=O)O)cc3)C(=C/C=C3/N(CCCCS(=O)(=O)O)c4ccc(S(=O)(=O)[O-])cc4C3(C)C)/CCC2)=[N+](CCCCCC(=O)O)c2ccc(S(=O)(=O)O)cc21 [IRDye800, reference compound]			Visualization of tumor in NIR image [1]: did not have detectable signal
cyclo(Lys-Arg-Gly-Asp-phe), c(KRGDf; SEQ ID NO. 3) (peptide)	2.47 µM		
Cy5.5-c(KRGDf; SEQ ID NO. 3) (peptide)	1.11 µM		
CC(C)C[C@@H]1NC(=O)[C@H]([C@@H](C)O)NC(=O)[C@H](Cc2ccccc2)NC(=O)CNC(=O)[C@H](Cc2c[nH]c3ccccc23)NC(=O)[C@H](Cc2c[nH]cn2)NC(=O)[C@H]([C@@H](C)O)NC(=O)[C@H]([C@@H](C)O)NC(=O)[C@@H](N)CSSC[C@@H](C(N)=O)NC1=O [c(CTTHWGFTLC; SEQ ID NO. 1), reference compound] (HELM PEPTIDE1{C.T.T.H.W.G.F.T.L.C.[am]}$PEPTIDE1,PEPTIDE1,1:R3-10:R3$$$V2.0)		degrades completely	metabolised at 3 h, 1 mg/ml ([3]; serum-containing culture medium (DMEM/F-12 Ham with 10% FBS), after 3 hours, read-out: Peptide degraded): > 90%
CC(C)C[C@@H]1NC(=O)[C@H]([C@@H](C)O)NC(=O)[C@H](Cc2ccccc2)NC(=O)CNC(=O)[C@H](Cc2c[nH]c3ccccc23)NC(=O)[C@H](Cc2c[nH]cn2)NC(=O)[C@H]([C@@H](C)O)NC(=O)[C@H]([C@@H](C)O)NC(=O)[C@H](C)NC(=O)CCNC1=O [c(ATTHWGFTLβA; SEQ ID NO. 2)] (HELM PEPTIDE1{A.T.T.H.W.G.F.T.L.[bAla]}$PEPTIDE1,PEPTIDE1,1:R1-10:R2$$$V2.0; bridges inferred)		no apparent degradation	Degradation over the course of the study ([3]; 5 days): no degradation
